The record followed here is paper PMC11285977, “Identification of drug-like molecules targeting the ATPase activity of dynamin-like EHD4” (PLOS ONE, 2024).

One test deals with T1, EHD2 (Mus musculus, UniProt Q8BH64).
T1 construct: Mouse EHD2 (Uniprot Q8BH64, residues 1–543); made in house
T1 sequence (Q8BH64 1-543): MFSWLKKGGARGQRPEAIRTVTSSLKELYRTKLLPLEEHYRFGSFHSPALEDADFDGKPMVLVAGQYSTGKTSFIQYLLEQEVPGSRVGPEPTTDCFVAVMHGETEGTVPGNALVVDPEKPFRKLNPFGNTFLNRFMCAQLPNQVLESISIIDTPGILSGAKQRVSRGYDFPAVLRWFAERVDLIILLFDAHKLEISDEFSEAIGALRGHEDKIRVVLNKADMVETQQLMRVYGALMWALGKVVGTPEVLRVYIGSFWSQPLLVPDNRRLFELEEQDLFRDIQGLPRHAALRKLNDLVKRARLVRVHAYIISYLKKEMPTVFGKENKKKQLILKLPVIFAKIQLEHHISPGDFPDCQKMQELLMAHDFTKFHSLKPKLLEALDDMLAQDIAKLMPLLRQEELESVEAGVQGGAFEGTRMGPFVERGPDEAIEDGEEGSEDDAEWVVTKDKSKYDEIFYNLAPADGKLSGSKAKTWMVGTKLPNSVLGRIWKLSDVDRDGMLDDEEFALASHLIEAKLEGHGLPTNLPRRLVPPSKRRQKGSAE
Nature of the test: HPLC-based EHD2 ATPase assay. In kind it is biochemical. The conditions noted are these: 5 μM EHD2, 500 μg/ml Folch liposomes, 50 μM ATP, 30°C. The method, then:
ATPase assay was performed as mentioned above and at defined time points, reaction aliquots were diluted three times in reaction buffer (50 mM Tris, 150 mM NaCl, pH 7.5) and quickly flash frozen in liquid nitrogen. Samples were applied to an HPLC and nucleotides were separated with reversed phase column (C18 100*4.6 mm) equilibrated with running buffer containing 100 mM potassium phosphate buffer pH 6.5, 10 mM tetrabutylammonium bromide, 7.5% (v/v) acetonitrile. Adenine nucleotides were detected by absorption at 254 nm and quantified by integrating the corresponding nucleotide peaks and determining the ADP/ATP ratios.
Fig 5 Biochemical characterization of the primary hits. A One-hour time course of the MLG-based enzymatic ATPase assay in the presence of 50 μM inhibitor. EHD4^ΔN (blue curve) represents the positive control. B Primary hits were validated at 50 μM inhibitor concentration in an HPLC setup to exclude assay bias. ATPase assays done in A and B were in standard conditions. C Primary hits were tested against EHD2. Only MS8 had no effect on EHD2 ATPase activity. ATPase assay was done at an EHD2 concentration of 5 μM in the presence of 500 μg/ml Folch liposomes and 50 μM ATP in assay buffer at 30°C. D Changes in melting temperature of 5 μM EHD4^ΔN were studied in the presence of 50 μM inhibitor by thermal shift assay. MS1 and MS10 destabilized the protein, as evident by negative ΔTm, whereas MS8 had no effect on the stability of EHD4^ΔN. […] Shown is an IC50 curve plotted with an inhibitor concentration range from 0.125 μM to 50 μM. F MS8 substructure obtained by dissecting the diphenlyether bond. […]
Supplementary file pone.0302704.s004.tif: S4 Fig DNM1L and EHD2 enzymatic assay. […] B Initial velocities of DNM1L GTPase activity at 300 nM DNM1L, and, 500 μg/ml synthetic DOPS, T = 25°C and at different GTP concentrations were determined by a linear fit. C Km was determined by first calculating the amount of hydrolyzed GTP in (B) using the standard curve reported in S2C Fig and then plotting the initial rates of the reactions versus the substrate concentration. […]

Test [1] deals with T2, EHD4^ΔN (Mus musculus, UniProt Q9EQP2).
T2 construct: mouse EHD4 (Uniprot Q1MWP8, residues 22–541, EHD4^ΔN); His6 followed by PreScission cleavage site (N, cleaved yes); made in house; host or cells: E. coli BL21 DE3 Rosetta
T2 sequence (Q9EQP2 22-541): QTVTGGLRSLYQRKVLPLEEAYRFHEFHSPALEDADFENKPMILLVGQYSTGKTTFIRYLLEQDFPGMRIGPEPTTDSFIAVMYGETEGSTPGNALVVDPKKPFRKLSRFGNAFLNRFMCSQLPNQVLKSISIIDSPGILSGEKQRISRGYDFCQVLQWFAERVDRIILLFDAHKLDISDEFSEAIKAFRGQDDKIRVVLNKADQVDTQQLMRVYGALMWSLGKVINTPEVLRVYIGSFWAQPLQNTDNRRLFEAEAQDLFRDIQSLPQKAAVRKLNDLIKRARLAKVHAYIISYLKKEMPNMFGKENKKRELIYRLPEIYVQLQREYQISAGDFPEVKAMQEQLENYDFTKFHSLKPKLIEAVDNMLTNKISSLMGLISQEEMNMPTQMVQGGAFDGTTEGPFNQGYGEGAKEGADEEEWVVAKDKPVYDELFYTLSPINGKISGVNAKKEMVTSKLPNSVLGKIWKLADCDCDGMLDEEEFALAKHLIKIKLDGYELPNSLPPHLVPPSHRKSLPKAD
Kind of test: Thermal shift assay (TSA). In kind it is binding. The conditions noted are these: 5 μM EHD4ΔN, 50 μM inhibitor. The method, then: TSA was done in a CFX96 touch-real time PCR using a fluorescent dye from ThermoFisher Scientific (catalogue number 4461146). Reactions (5 μM EHD4^ΔN, 50 μM inhibitor and 1X dye) were prepared on ice, to a final volume of 50 μl and transferred to a 96 well PCR plate and then sealed with a plastic film. CFX96 was precooled to 4°C and the PCR plate was inserted. The fluorescence was measured from 4°C to 80°C with 0.5°C temperature steps. Protein melting temperature was calculated with the provided software (Bio-Rad) and plotted as bar diagram using GraphPad Prism 7.05.

A further test concerns the target T3, DNM1L (Homo sapiens, UniProt O00429).
T3 construct: human DNM1L isoform 2 (UniProtID: O00429-3, residues 1–710); made in house
Kind of test: MLG-based stimulated GTPase assay of DNM1L (counter-screen). It is filed as biochemical. The conditions noted are these: 300 nM DNM1L, 40 μM GTP, 25°C; inhibitor 0.125 μM to 50 μM (IC50 curve) or 10 μM (time course). The method, then: Fig 5 Biochemical characterization of the primary hits. A One-hour time course of the MLG-based enzymatic ATPase assay in the presence of 50 μM inhibitor. EHD4^ΔN (blue curve) represents the positive control. B Primary hits were validated at 50 μM inhibitor concentration in an HPLC setup to exclude assay bias. ATPase assays done in A and B were in standard conditions. C Primary hits were tested against EHD2. Only MS8 had no effect on EHD2 ATPase activity. ATPase assay was done at an EHD2 concentration of 5 μM in the presence of 500 μg/ml Folch liposomes and 50 μM ATP in assay buffer at 30°C. D Changes in melting temperature of 5 μM EHD4^ΔN were studied in the presence of 50 μM inhibitor by thermal shift assay. MS1 and MS10 destabilized the protein, as evident by negative ΔTm, whereas MS8 had no effect on the stability of EHD4^ΔN. […] Shown is an IC50 curve plotted with an inhibitor concentration range from 0.125 μM to 50 μM. F MS8 substructure obtained by dissecting the diphenlyether bond. This substructure was used in our chemical search to have the highest diversity of the chemical space and the optimal coverage of chemical vectors to gain a structure-activity relationship.Data points represents the mean of two or more independent experiments and the error bar signifies the range or standard deviation. […] TEXT PRINTED IN THE PICTURE: (D) EHD4^ΔN: Tm = 44.5 °C DOUBTS OF THE COPYIST ABOUT THIS PICTURE: Panel D: 'EHD4^ΔN Tm = 44.5 °C' is the only printed result. It refers to the protein itself (reference melting temperature), not to one of the inhibitors MS1, MS8 or MS10, so it may not count as a result for a substance.
Supplementary file pone.0302704.s004.tif: S4 Fig DNM1L and EHD2 enzymatic assay. A EHD2 ATPase activity by an HPLC-based method. Assay conditions were 5 μM EHD2, 50 μM ATP and 1 mg/ml Folch liposomes at 30°C. […] C Km was determined by first calculating the amount of hydrolyzed GTP in (B) using the standard curve reported in S2C Fig and then plotting the initial rates of the reactions versus the substrate concentration. […]

Test [2] concerns the target T2, EHD4^ΔN. Nature of the test: Malachite green (MLG)-based liposome-stimulated ATPase assay of EHD4ΔN. The conditions noted are these: read-out: IC50, EHD4ΔN ATPase inhibition. It is filed as biochemical. The method, then: ATPase assays were performed in a 384 well plate at 25°C (if not otherwise indicated). The assay buffer contained 20 mM HEPES, 150 mM KCl, 0.5 mM MgCl2, pH 7.5. 30 μM of ATP was mixed with 50 μg/ml DOPS in assay buffer. Reaction was started by adding 200 nM EHD4^ΔN. At any given time-point, 25 μl of the reaction was taken out and mixed with 75 μl of the dye in a 384 well plate. The reaction gets quenched by the addition of the dye which denatures the protein. Absorbance at 650 nm was measured in a plate reader (Tecan, Infinite M200).
Screening was conducted at the Screening Unit of the Leibniz-Forschungsinstitut für Molekulare Pharmakologie (FMP) using a kinase drug library and the ‘diversity set’. 15,840 compounds were tested as singlets in 384 well plate format. A master mix (MM) was prepared in the assay buffer to have a final ATP concentration of 30 μM and DOPS concentration of 50 μg/ml. A 10 mM DMSO solution of the compounds was serially diluted, first with DMSO and then with the MM to a final concentration of 10 μM (1% of DMSO), using the Tecan-Evo workstation (pipetting robot). EHD4^ΔN (200 nM) was pipetted using multi-drop dispensing cassette. To have homogenous enzymatic activity, the plates were vortexed using a microplate mixer at 2,000 rpm for 10 s. The plates were incubated for 15 min at room temperature and 75 μl of MLG dye added with the cassette. The plates were measured in a Perkin Elmer Envision plate reader.
Data were analyzed with an automated pipeline using KNIME software. For the individual plates, the corresponding Z´ values and SNR were calculated. Compared to the control´s absorbance at 650 nm (Abs650), compounds were classified as inhibitors if the %Abs650 was ≤ 25%. These hits were picked from the drug library and used for further validation of IC50 determination and counter screening. IC50 values were determined in the same setup with varying inhibitor concentrations from 0.125 μM to 50 μM.

The mark [3] stands for this setting: compounds picked from the drug library, duplicates, inhibitor 0.125 μM to 50 μM, 200 nM EHD4ΔN, 30 μM ATP, 50 μg/ml DOPS.

Structures are written as SMILES. Read-outs that look alike come from different tables or passages of the source.

T3 sequence (O00429 1-710 isoform O00429-3): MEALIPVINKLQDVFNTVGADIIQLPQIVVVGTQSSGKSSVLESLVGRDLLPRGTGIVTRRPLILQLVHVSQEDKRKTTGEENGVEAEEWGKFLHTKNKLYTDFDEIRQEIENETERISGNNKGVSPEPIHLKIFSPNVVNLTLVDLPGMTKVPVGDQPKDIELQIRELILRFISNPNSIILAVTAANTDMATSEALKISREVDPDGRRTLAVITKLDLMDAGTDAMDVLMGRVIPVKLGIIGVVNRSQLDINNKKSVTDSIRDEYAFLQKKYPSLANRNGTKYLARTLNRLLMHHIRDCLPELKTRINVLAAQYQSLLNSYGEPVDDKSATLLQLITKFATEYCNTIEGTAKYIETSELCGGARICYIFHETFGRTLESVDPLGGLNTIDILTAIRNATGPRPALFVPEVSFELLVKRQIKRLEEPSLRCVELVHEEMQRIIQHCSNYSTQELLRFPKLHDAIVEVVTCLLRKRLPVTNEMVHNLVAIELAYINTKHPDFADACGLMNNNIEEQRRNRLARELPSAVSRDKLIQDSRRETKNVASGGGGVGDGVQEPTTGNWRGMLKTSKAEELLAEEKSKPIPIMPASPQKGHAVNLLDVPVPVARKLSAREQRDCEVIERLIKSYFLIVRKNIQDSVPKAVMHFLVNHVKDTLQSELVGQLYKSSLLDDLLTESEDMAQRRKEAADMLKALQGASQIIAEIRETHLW

With `Cc1csc(NC(=O)c2cccc(Oc3ccccc3)c2)n1` [MS8, N-(4-methyl-1,3-thiazol-2-yl)-3-phenoxybenzamide], the “effect on EHD2 enzymatic (ATPase) activity” value (“effect on EHD2 enzymatic” for short) on EHD2 is “no effect”. In addition, on EHD4^ΔN [1], the “effect on EHD4ΔN stability (thermal shift)” value is recorded as “no such effect”. The “effect on stimulated GTPase activity of DNM1L” value (“effect … of DNM1L” for short) on DNM1L is given as “did not inhibit”. Also, the half-inhibitory concentration (IC50) at EHD4^ΔN [2] (setting [3]) is 3.8 µM; at EHD4^ΔN [2] (repurchased compounds), 4.9 µM.

For `Oc1cc2c(cc1C(c1ccc(C(F)(F)F)cc1)N1CCOCC1)OCO2` (stereo not shown) [MS10, 6-(Morpholino(4-(Trifluormethyl)phenyl)methyl)-1,3-Benzodioxol-5-ol], on EHD2, the “effect on EHD2 enzymatic” value is on record as “inhibited”. Also, the “effect on EHD4ΔN stability (thermal shift)” value at EHD4^ΔN [1] was “diminished EHD4^ΔN stability”. Besides, the “effect … of DNM1L” value on DNM1L is recorded as “did not interfere”. Besides, the IC50 on EHD4^ΔN [2] (setting [3]) amounted to 2.9 µM; at EHD4^ΔN [2] (repurchased compounds), 4.8 µM.

As for `O=C(CCCCCn1sc2ccccc2c1=O)Nc1ccccc1O` [MS1, N-(2-hydroxyphenyl)-6-(3-oxo-2,3-dihydro-1,2-benzothiazol-2-yl)hexanamide], the “effect on EHD2 enzymatic” value on EHD2 is reported as “inhibited”. On EHD4^ΔN [1], the “effect on EHD4ΔN stability (thermal shift)” value is recorded as “destabilizing effect”. Besides, the ΔTm at 50 µM on EHD4^ΔN [1] (Tm of protein alone 44.5°C) was -5 °C. Moreover, the “effect … of DNM1L” value at DNM1L was “did not interfere”. For the same molecule, the 50% inhibitory concentration (IC50) at EHD4^ΔN [2] (setting [3]) is 0.92 µM; on EHD4^ΔN [2] (repurchased compounds), 2.4 µM.
